From publication PMC4421842 (Nature Communications, 2015)
Converted amounts (≈) assume the structure as drawn. “And” between values parts separate entries of the source, which are not always exact repeats. Equal entries are not always repeated. Where two headings read alike, the source gives them in different places.

Experiments:
MRSA clinical isolates = experiment: microbe, parasite or virus in culture; format: cell-based, S. aureus; conditions: Staphylococcus aureus, MRSA, read-out: MIC
Experimental: MRSA and P. aeruginosa isolates were from Cubist Pharmaceuticals (Lexington, MA). VRE isolates were from a previously published collection. E. coli strains were obtained either from ATCC or Professor Cari Vanderpool (UIUC). A. baumannii isolates were obtained from Dr John Quale[51].
Susceptibility testing was performed in triplicate, using the microdilution broth method as outlined by the Clinical and Laboratory Standards Institute[52]. Mueller Hinton (MH) broth was used.

[1] = tested on: WT S. aureus (ATCC 29213, WT); experiment: microbe, parasite or virus in culture; format: cell-based; conditions: for MIC: Staphylococcus aureus; for MIC against S. aureus 29213: ATCC 29213
[2] = tested on: FQR S. aureus (NRS3, FQR); experiment: MIC, microdilution broth assay, FQR MRSA NRS3; format: cell-based; conditions: for MIC: Staphylococcus aureus
physchem = conditions: pH 7.4
Experimental: Three independent replicates of each compound were performed.

[3] = Tolerability in mice (maximal tolerated dose); format: in vivo; conditions: increasing doses, highest dose evaluated 50 mg kg^−1 by oral gavage
Experimental: (§1) The animal studies (PK, in-vivo toxicity and in-vivo efficacy) were carried out in strict accordance with the recommendations in the Guide for the Care and Use of Laboratory Animals of the National Institutes of Health. […] In these studies, 10- to 12-week-old female C57BL/6 mice purchased from Charles River were used. DNM, DNM-2 and DNM-3 were formulated as slurries at 8.3 mg ml^−1 in 25% Cremophor RH40/water (v/v). Before beginning the pharmacokinetic assessment, mice were first tested for their ability to tolerate the DNM, DNM-2 and DNM-3 at 50 mg kg^−1 (p.o.). […] At specified time points, mice were killed and blood was collected, centrifuged and the serum was frozen at −80 °C until analysis. The proteins in a 50-μl aliquot of serum were precipitated by the addition of 50 μl of acetonitrile and the sample was centrifuged to remove the proteins. Serum concentrations of DNM, DNM-2 and DNM-3 were determined by HPLC. PK parameters were determined using GraphPad Prism Version 5.00 for Windows.

[4] = Pharmacokinetic assessment; format: in vivo, C57BL/6 mice
Experimental: as §1

[5] = ATCC29213, ATCC 29213, WT GyrA and WT ParC, three independent replicates, read-out: MIC against S. aureus 29213
[6] = NRS3, S84L GyrA and S80F ParC, three independent replicates
[7] = NRS3, S84L GyrA and S80F ParC, three independent replicates, read-out: MIC against S. aureus NRS3
[8] = WT GyrA and WT ParC, three independent replicates
[9] = female, C57BL/6, mouse, in vivo, C57/BL6 mice, 50 mg kg-1 oral gavage, serum

In the case of CC1(C)S[C@@H]2[C@H](NC(=O)[C@H](N)c3ccccc3)C(=O)N2[C@H]1C(=O)O [Amp, Ampicillin, reference compound], the MIC (MRSA clinical isolates; strain SAU.1118) is reported as > 64 µg/mL, the MIC (MRSA clinical isolates; strain SAU.3024) is reported as > 64 µg/mL and the MIC (MRSA clinical isolates; strain SAU.3025) is reported as 64 µg/mL (≈ 183 µM). For the same compound, the MIC (MRSA clinical isolates; strain SAU.419) was > 64 µg/mL, the MIC (MRSA clinical isolates; strain SAU.42) was 2 µg/mL (≈ 5.72 µM) and the MIC (MRSA clinical isolates; strain SAU.446) was > 64 µg/mL. For the same compound, the MIC (MRSA clinical isolates; strain SAU.447) was > 64 µg/mL and the MIC (MRSA clinical isolates; strain SAU.555) was > 64 µg/mL.
With CCCCCCCCCC(=O)N[C@@H](Cc1c[nH]c2ccccc12)C(=O)N[C@H](CC(N)=O)C(=O)N[C@@H](CC(=O)O)C(=O)N[C@@H]1C(=O)NCC(=O)N[C@@H](CCCN)C(=O)N[C@@H](CC(=O)O)C(=O)N[C@H](C)C(=O)N[C@@H](CC(=O)O)C(=O)NCC(=O)N[C@H](CO)C(=O)N[C@@H]([C@H](C)CC(=O)O)C(=O)N[C@@H](CC(=O)c2ccccc2N)C(=O)O[C@@H]1C [daptomycin, reference compound] the MIC [1, 5] was 2 µg/mL (≈ 1.23 µM), the “MIC against S. aureus NRS3” value [2, 6] was 8 µg/mL (≈ 4.94 µM) and the MIC [2, 7] was 8 µg/mL (≈ 4.94 µM).
For CCCCn1c(=O)cc(CCC)c2cc3c(CCC)cc(=O)n4c3c(c21)OC4 [compound 15], the “MIC against S. aureus 29213” value [1, 8] was > 32 µg/mL, the MIC [1, 5] was > 32 µg/mL and the “MIC against S. aureus NRS3” value [2, 6] was 32 µg/mL (≈ 84.1 µM).
With CCCc1cc(=O)n2c3c(c4c(cc13)c(C)cc(=O)n4C)OC2 [compound 6] the “MIC against S. aureus 29213” value [1, 8] was 16 µg/mL (≈ 51.6 µM), the MIC [1, 5] was 16 µg/mL (≈ 51.6 µM) and the “MIC against S. aureus NRS3” value [2, 6] was 0.25 µg/mL (≈ 0.806 µM).
For CCc1cc(=O)n(C)c2c3c4c(cc12)c(C)cc(=O)n4CO3 [compound 4], the solubility at 1 h (physchem) was 53 µM (≈ 15.7 µg/mL), the “MIC against S. aureus 29213” value [1, 8] was 8 µg/mL (≈ 27 µM) and the MIC [1, 5] was 8 µg/mL (≈ 27 µM). The “MIC against S. aureus NRS3” value [2, 6] was 0.25 µg/mL (≈ 0.844 µM).
For Cc1cc(=O)n2c3c(c4c(cc13)c(C)cc(=O)n4CC(C)(C)C)OC2 [compound 12], the “MIC against S. aureus 29213” value [1, 8] was 32 µg/mL (≈ 94.6 µM), the MIC [1, 5] was 32 µg/mL (≈ 94.6 µM) and the “MIC against S. aureus NRS3” value [2, 6] was 16 µg/mL (≈ 47.3 µM).
With Cc1cc(=O)n(C)c2c3c4c(cc12)c(C)cc(=O)n4C(C)O3 (stereo not drawn) [compound 5] the “MIC against S. aureus 29213” value [1, 8] was 4 µg/mL (≈ 13.5 µM) and the MIC [1, 5] was 4 µg/mL (≈ 13.5 µM).
In the case of CCCCCCn1c(=O)cc(C)c2cc3c(C)cc(=O)n4c3c(c21)OC4 [compound 10], the “MIC against S. aureus 29213” value [1, 8] is reported as > 64 µg/mL, the MIC [1, 5] is reported as > 64 µg/mL and the “MIC against S. aureus NRS3” value [2, 6] is reported as 1 µg/mL (≈ 2.84 µM).
With CO[C@@H]1[C@@H](OC(N)=O)[C@@H](O)[C@H](Oc2ccc3c(O)c(NC(=O)c4ccc(O)c(CC=C(C)C)c4)c(=O)oc3c2C)OC1(C)C [Novo, Novobiocin, reference compound] the MIC (MRSA clinical isolates; strain SAU.1118) was 0.5 µg/mL (≈ 0.816 µM), the MIC (MRSA clinical isolates; strain SAU.3017) was 0.5 µg/mL (≈ 0.816 µM) and the MIC (MRSA clinical isolates; strain SAU.3021) was 0.25 µg/mL (≈ 0.408 µM). It also gave an MIC (MRSA clinical isolates; strain SAU.419) of 0.25 µg/mL (≈ 0.408 µM), an MIC (MRSA clinical isolates; strain SAU.42) of 0.5 µg/mL (≈ 0.816 µM) and an MIC (MRSA clinical isolates; strain SAU.447) of 0.25 µg/mL (≈ 0.408 µM). It also gave an MIC (MRSA clinical isolates; strain SAU.555) of 0.25 µg/mL (≈ 0.408 µM) and an MIC (MRSA clinical isolates; strain SAU.846) of 0.125 µg/mL (≈ 0.204 µM).
With CC(=O)NC[C@H]1CN(c2ccc(N3CCOCC3)c(F)c2)C(=O)O1 [linezolid, reference compound] the “MIC against S. aureus NRS3” value [2, 6] was 0.5 µg/mL (≈ 1.48 µM) and the MIC [2, 7] was 0.5 µg/mL (≈ 1.48 µM).
With CN[C@H](CC(C)C)C(=O)N[C@H]1C(=O)N[C@@H](CC(N)=O)C(=O)N[C@H]2C(=O)N[C@H]3C(=O)N[C@H](C(=O)N[C@H](C(=O)O)c4cc(O)cc(O)c4-c4cc3ccc4O)[C@H](O)c3ccc(c(Cl)c3)Oc3cc2cc(c3O[C@@H]2O[C@H](CO)[C@@H](O)[C@H](O)[C@H]2O[C@H]2C[C@](C)(N)[C@H](O)[C@H](C)O2)Oc2ccc(cc2Cl)[C@H]1O [vancomycin, reference compound] the MIC (MRSA clinical isolates; strain SAU.1118) was 2 µg/mL (≈ 1.38 µM), the MIC (MRSA clinical isolates; strain SAU.2996) was 1 µg/mL (≈ 0.69 µM) and the MIC (MRSA clinical isolates; strain SAU.3017) was 1 µg/mL (≈ 0.69 µM). The MIC (MRSA clinical isolates; strain SAU.3021) was 1 µg/mL (≈ 0.69 µM), the MIC (MRSA clinical isolates; strain SAU.3024) was 2 µg/mL (≈ 1.38 µM) and the MIC (MRSA clinical isolates; strain SAU.419) was 4 µg/mL (≈ 2.76 µM). It also gave an MIC (MRSA clinical isolates; strain SAU.42) of 1 µg/mL (≈ 0.69 µM), an MIC (MRSA clinical isolates; strain SAU.446) of 2 µg/mL (≈ 1.38 µM) and an MIC (MRSA clinical isolates; strain SAU.555) of 1 µg/mL (≈ 0.69 µM). For the same compound, the MIC (MRSA clinical isolates; strain SAU.846) was 8 µg/mL (≈ 5.52 µM), the MIC ([1]; ATCC29213, read-out: MIC against S. aureus 29213) was 1 µg/mL (≈ 0.69 µM) and the “MIC against S. aureus NRS3” value [2, 6] was 8 µg/mL (≈ 5.52 µM). The MIC [2, 7] was 8 µg/mL (≈ 5.52 µM).
In the case of Cc1cc(=O)n2c3c(c4c(cc13)c(C)cc(=O)n4CC(C)C)OC2 [compound 11], the “MIC against S. aureus 29213” value [1, 8] is reported as > 32 µg/mL, the MIC [1, 5] is reported as > 32 µg/mL and the “MIC against S. aureus NRS3” value [2, 6] is reported as 2 µg/mL (≈ 6.17 µM).
For CCc1cc(=O)n(C)c2c3c4c(cc12)c(CC)cc(=O)n4CO3 [compound 13], the solubility at 1 h (physchem) was 48 ± 8 µM (≈ 14.9 µg/mL), the “MIC against S. aureus 29213” value [1, 8] was > 32 µg/mL and the MIC [1, 5] was > 32 µg/mL. For the same compound, the “MIC against S. aureus NRS3” value [2, 6] was 16 µg/mL (≈ 51.6 µM).
With CCc1cc(=O)n2c3c(c4c(cc13)c(C)cc(=O)n4C)OC2 [DNM-3] the solubility at 1 h (physchem) was 27 µM (≈ 8 µg/mL), the tolerability [3] was “well tolerated up to the highest dose evaluated” and the “MIC against S. aureus 29213” value [1, 8] was 8 µg/mL (≈ 27 µM). The MIC [1, 5] was 8 µg/mL (≈ 27 µM), the “MIC against S. aureus NRS3” value [2, 6] was 0.12 µg/mL (≈ 0.405 µM) and the AUC [4, 9] was 4000 ng·h/mL. For the same compound, the Tmax [4, 9] was 1.1 h, the half-life [4, 9] was 1.2 h and the Cmax ([4]; female, C57BL/6, mouse, mice, 50 mg kg^−1 oral dose, serum, read-out: Cmax (peak serum concentration)) was 4.3 µM and 1260 ng/mL. The “oral bioavailability / serum exposure” value ([4]; mice, 50 mg kg^−1 oral dose) was “intermediate level of bioavailability” and the “area under the curve” value ([4]; mice, 50 mg kg^−1 oral dose, serum) was 4000 ng·h/mL.
Cc1cc(=O)[nH]c2c(O)c3c(cc12)c(C)cc(=O)n3C [compound 1] gave an MIC [1, 5] of 2 µg/mL (≈ 7.4 µM) and an MIC ([2]; NRS3, read-out: MIC against S. aureus NRS3) of 4 µg/mL (≈ 14.8 µM).
In the case of CCCc1cc(=O)n(C)c2c3c4c(cc12)c(C)cc(=O)n4CO3 [compound 7], the “MIC against S. aureus 29213” value [1, 8] is reported as 16 µg/mL (≈ 51.6 µM), the MIC [1, 5] is reported as 16 µg/mL (≈ 51.6 µM) and the “MIC against S. aureus NRS3” value [2, 6] is reported as 1 µg/mL (≈ 3.22 µM).
With CCCCCn1c(=O)cc(C)c2cc3c(C)cc(=O)n4c3c(c21)OC4 [compound 9] the “MIC against S. aureus 29213” value [1, 8] was 32 µg/mL (≈ 94.6 µM), the MIC [1, 5] was 32 µg/mL (≈ 94.6 µM) and the “MIC against S. aureus NRS3” value [2, 6] was 0.25 µg/mL (≈ 0.739 µM).
